# Results as given in article PMC6019444, “Activation of the Immune-Metabolic Receptor GPR84 Enhances Inflammation and Phagocytosis in Macrophages” (Frontiers in Immunology, 2018).
# Biological target: GPR84 (Mus musculus, UniProt Q8CIM5)
# Test: real-time cell impedance in LPS-primed mouse BMDMs, WT versus GPR84-/-
# Type: cell-based
# Sequence of GPR84 (Q8CIM5 whole entry): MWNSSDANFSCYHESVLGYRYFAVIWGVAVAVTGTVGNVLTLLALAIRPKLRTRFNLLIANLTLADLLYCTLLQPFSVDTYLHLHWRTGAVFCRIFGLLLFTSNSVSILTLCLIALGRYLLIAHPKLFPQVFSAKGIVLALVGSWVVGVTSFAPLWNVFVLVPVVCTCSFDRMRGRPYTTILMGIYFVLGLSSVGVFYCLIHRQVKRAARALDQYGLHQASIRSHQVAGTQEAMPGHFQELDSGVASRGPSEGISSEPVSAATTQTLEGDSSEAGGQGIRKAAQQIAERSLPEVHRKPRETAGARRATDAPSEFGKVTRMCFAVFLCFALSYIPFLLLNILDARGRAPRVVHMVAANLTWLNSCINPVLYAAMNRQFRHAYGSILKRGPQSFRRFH
smiles,measurement,value
"CCCCCCCCNc1cc(=O)[nH]c(=O)[nH]1 [6-OAU, 6-(octylamino) pyrimidine-2,4(1H,3H)-dione]","real-time cell impedance in LPS-primed mouse BMDMs, WT versus GPR84-/-",no response was observed when adding any dose of 6-OAU to GPR84^−/− cells
